Tests used:
Format in all cases: biochemical
Details in all cases: Table 6; inhibit 50% of activity at 50 μM
[1] = molecular target: T1, JAK3 (Homo sapiens, UniProt P52333); test: JAK3 kinase domain capture-based ELISA kinase assay
T1 construct: The kinase domain of humanJAK3 was amplified from U937mRNA; His tag (from pFastBac HTb vector; nickel chelate purification) (N); made in house; host or cells: baculovirus; virus made in Sf9, large-scale expression in High Five insect cells
Experimental: (§1) For screening purposes, compounds were diluted in 96 well plates at a concentration of 50 μM or 20 μM. Plates were warmed at 37° C. for 30 minutes before assay.
The kinase domain of humanJAK3 was amplified from U937mRNA using the polymerase chain reaction with the following primers: […]
JAK3 PCR products were cloned into the pFastBac HTb expression vector (Gibco) via the Xho I and Kpn I sites. The JAK3 plasmid was then transformed into competent DH10Bac cells (Gibco), and the recombinant baculovirus produced prepared for transfection into Sf9 insect cells.
(§2) Baculovirus preparations from each of the JAK family members were infected into five litres of High Five cells (Invitrogen) grown in High Five serum free medium (Invitrogen) to a cell density of approximately 1-2×10^6 cells/ml. Cells are infected with virus at a MOI of 0.8-3.0. Cells were harvested and lysed. JAK kinase domains were purified by affinity chromatography on a Probond (Invitrogen) nickel chelate affinity column.
(§3) The biotinylated substrate biotin-EGPWLEEEEEAYGWMDF-NH2 (SEQ ID NO:9) (final concentration 5 μM) was used as substrate, and tyrosine phosphorylation was quantitated following transfer to an avidin coated ELISA plate using peroxidase-linked anti-phospho-tyrosine antibody PY20.
(§4) Inhibitors were added to the assays fifteen minutes prior to the addition of ATP. Inhibitors were added in aqueous DMSO, with DMSO concentrations never exceeding 1%.

[2] = molecular target: T2, JAK2 (Homo sapiens, UniProt O60674); test: JAK2 kinase domain capture-based ELISA kinase assay
T2 construct: The kinase domain of humanJAK2 was amplified from U937mRNA; His tag (from pFastBac HTc vector; nickel chelate purification) (N); made in house; host or cells: baculovirus; virus made in Sf9, large-scale expression in High Five insect cells
Experimental: as §1
The kinase domain of humanJAK2 was amplified from U937mRNA using the polymerase chain reaction with the following primers: […]
JAK2 PCR products were cloned into the pFastBac HTc expression vector (Gibco) via the Sal I and Not I sites. The JAK2 plasmid was then transformed into competent DH10Bac cells (Gibco), and the recombinant baculovirus produced prepared for transfection into Sf9 insect cells.
as §2, §3, §4

[3] = molecular target: T3, TYK2 (Homo sapiens, UniProt P29597); test: TYK2 kinase domain capture-based ELISA kinase assay
T3 construct: The kinase domain of humanTYK2 was amplified from A549 mRNA; His tag (from pBlueBacHis2A vector; nickel chelate purification) (N); made in house; host or cells: baculovirus; virus made in Sf9, large-scale expression in High Five insect cells
T3 sequence (P29597 897-1176 limits assumed): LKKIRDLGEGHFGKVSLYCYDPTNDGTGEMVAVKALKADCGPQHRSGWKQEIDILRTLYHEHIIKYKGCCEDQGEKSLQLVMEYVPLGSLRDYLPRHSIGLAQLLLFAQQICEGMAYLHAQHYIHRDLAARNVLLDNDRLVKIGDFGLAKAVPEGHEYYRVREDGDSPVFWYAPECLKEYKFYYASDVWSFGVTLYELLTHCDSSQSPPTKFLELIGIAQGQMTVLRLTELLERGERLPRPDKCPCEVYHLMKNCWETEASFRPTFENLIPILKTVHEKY
Experimental: as §1
The kinase domain of humanTYK2 was amplified from A549 mRNA using the polymerase chain reaction with the following primers: […]
TYK2 PCR products were cloned into pBlueBacHis2A (Invitrogen) via the EcoRI site. The recombinant TYK2 baculovirus produced was prepared for transfected into Sf9 insect cells.
as §2, §3, §4

[4] = molecular target: T4, JAK1 (Homo sapiens, UniProt P23458); test: JAK1 kinase domain capture-based ELISA kinase assay
T4 construct: The kinase domain of humanJAK1 was amplified from U937mRNA; His tag (from pFastBac HTb vector; nickel chelate purification) (N); made in house; host or cells: baculovirus; virus made in Sf9, large-scale expression in High Five insect cells
Experimental: as §1
The kinase domain of humanJAK1 was amplified from U937mRNA using the polymerase chain reaction with the following primers: […]
JAK1 PCR products were cloned into the pFastBac HTb expression vector (Gibco) via the Xho I and Kpn I sites. The JAK1 plasmid was then transformed into competent DH10Bac cells (Gibco), and the recombinant baculovirus produced prepared for transfection into Sf9 insect cells.
as §2, §3, §4

T2 sequence (O60674 849-1124 limits assumed): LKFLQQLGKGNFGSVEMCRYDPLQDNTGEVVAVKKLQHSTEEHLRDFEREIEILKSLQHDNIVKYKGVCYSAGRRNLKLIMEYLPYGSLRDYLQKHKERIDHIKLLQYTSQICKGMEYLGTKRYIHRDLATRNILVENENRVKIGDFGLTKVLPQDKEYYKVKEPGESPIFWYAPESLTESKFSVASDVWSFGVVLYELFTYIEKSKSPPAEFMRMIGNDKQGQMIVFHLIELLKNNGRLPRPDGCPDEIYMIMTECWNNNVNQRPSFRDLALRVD
T4 sequence (P23458 875-1153 limits assumed): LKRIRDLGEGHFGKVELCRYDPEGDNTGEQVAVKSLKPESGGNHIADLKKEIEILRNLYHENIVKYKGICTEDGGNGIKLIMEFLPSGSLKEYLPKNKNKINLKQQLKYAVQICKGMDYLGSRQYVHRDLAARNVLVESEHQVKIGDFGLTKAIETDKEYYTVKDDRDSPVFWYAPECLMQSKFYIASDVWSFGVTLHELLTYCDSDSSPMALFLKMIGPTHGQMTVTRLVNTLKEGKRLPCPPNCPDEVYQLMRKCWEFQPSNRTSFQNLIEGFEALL
T1 sequence (P52333 822-1111 limits assumed): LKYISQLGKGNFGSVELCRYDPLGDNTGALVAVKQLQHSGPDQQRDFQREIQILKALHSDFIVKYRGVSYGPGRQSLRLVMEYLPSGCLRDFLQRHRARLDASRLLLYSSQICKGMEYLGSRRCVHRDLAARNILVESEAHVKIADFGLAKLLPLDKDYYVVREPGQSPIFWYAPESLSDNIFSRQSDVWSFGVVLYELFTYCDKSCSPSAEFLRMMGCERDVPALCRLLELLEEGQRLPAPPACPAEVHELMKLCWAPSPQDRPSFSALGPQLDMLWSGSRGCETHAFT

Compound	IC50 [1] [µM]	IC50 [2] [µM]	IC50 [3] [µM]	IC50 [4] [µM]
CN(C)c1ccc(-c2cn3ccnc3c(NC3CC3)n2)cc1	< 50	> 50	> 50	> 50
Fc1ccccc1-c1cn2ccnc2c(Nc2ccc(N3CCOCC3)cc2)n1	> 50	< 50	< 50	< 50
Fc1ccc(-c2cn3ccnc3c(Nc3ccc4[nH]ccc4c3)n2)cc1Cl	> 50	> 50	< 50	< 50
COc1ccc(Nc2nc(-c3ccccc3F)cn3ccnc23)cn1	> 50	< 50	> 50	< 50
c1ccc(Nc2nc(-c3ccco3)cn3ccnc23)cc1	> 50	< 50	< 50	> 50
Brc1cn2ccnc2c(Nc2ccccc2)n1	> 50	< 50	< 50	< 50
CCNc1nc(-c2ccc(N(C)C)cc2)cn2ccnc12	> 50	> 50	> 50	< 50
NCc1cccc(-c2cn3ccnc3c(Nc3ccccc3)n2)c1	> 50	< 50	< 50	< 50
c1cn2cc(-c3ccc4c(c3)OCO4)nc(Nc3ccc(N4CCOCC4)cc3)c2n1	> 50	< 50	< 50	< 50
COc1ccccc1-c1cn2ccnc2c(Nc2ccc(N3CCOCC3)cc2)n1	> 50	< 50	< 50	< 50
CN1CCCN(c2nc(-c3cccc4ccccc34)cn3ccnc23)CC1	> 50	> 50	> 50	< 50
COc1ccccc1-c1cn2ccnc2c(Nc2ccc(CCO)cc2)n1	> 50	< 50	< 50	< 50
Cc1ccc(Nc2nc(-c3ccccc3Cl)cn3ccnc23)cc1NS(C)(=O)=O	> 50	< 50	< 50	< 50
CC(=O)Nc1cccc(-c2cn3ccnc3c(Nc3ccc(N4CCOCC4)cc3)n2)c1	> 50	< 50	< 50	< 50
OCCc1ccc(Nc2nc(-c3ccccc3F)cn3ccnc23)cc1	< 50	< 50	< 50	< 50
O=C(O)c1cccc(-c2cn3ccnc3c(Nc3ccc4cn[nH]c4c3)n2)c1	> 50	< 50	< 50	< 50
O=C(O)c1ccc(-c2cn3ccnc3c(Nc3ccc4cn[nH]c4c3)n2)cc1	> 50	< 50	< 50	< 50
COc1ccc(Nc2nc(-c3ccccc3OC)cn3ccnc23)cn1	> 50	< 50	< 50	< 50
c1coc(-c2cn3ccnc3c(Nc3ccc4[nH]ccc4c3)n2)c1	> 50	< 50	< 50	< 50
Oc1cccc(-c2cn3ccnc3c(N3CCOCC3)n2)c1	> 50	< 50	> 50	> 50
CCCC/C=C/c1cn2ccnc2c(Nc2ccc(OC)nc2)n1	> 50	< 50	> 50	> 50
COc1ccc(Nc2nc(-c3ccccc3Cl)cn3ccnc23)cn1	> 50	< 50	> 50	> 50
